Assay [1] deals with T1, hPK-M2 (Homo sapiens, UniProt P14618). Nature of the assay: Fluorescent pyruvate kinase-lactate dehydrogenase (LDH) coupled secondary assay. The format is biochemical. As to conditions: for AC50: read-out: AC50, LDH assay; for Emax: read-out: maximum response, LDH assay. The method, then:
Fluorescent Pyruvate Kinase-Lactate Dehydrogenase Coupled Secondary Assay.
Plates were immediately placed in ViewLux (Perkin Elmer) and NADH fluorescence was determined at 30 second exposure intervals for between 3 and 6 minutes. Data were normalized to the uninhibited and EC100 activation using known activators such as fructose-1,6-bis-phosphate. […] Data was collected on the Perkin Elmer Viewlux.

Assay [2] concerns the target T1, hPK-M2. Description: Luminescent pyruvate kinase-luciferase coupled assay (KinaseGlo). Format: biochemical. As to conditions: for activation at 57 µM: KinaseGlo, % activation at 57 μM of compound, read-out: hPK, M2 Max. Res. The gist of the method:
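Activation assay with 0.1 mM ADP and 0.5 mM PEP in 50 mM imidazole pH 7.2, 50 mM KCl, 7 mM MgCl2, 0.01% tween 20, 0.05% BSA; 1 h at r.t. ATP produced was read by luciferase luminescence. AC50 values were normalized to DMSO (uninhibited enzyme) and no-enzyme controls.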
A general note: Kinase-Glo reads ATP consumption through a luciferase reaction.

The mark [3] stands for this setting: luminescent pyruvate kinase-luciferase coupled assay (KinaseGlo), tables, read-out: hPK, M2 AC50.
Setting [4] is: luciferase-coupled assay, read-out: AC50.

Where only a bound is given, the exact number is not on record here.

T1 sequence (P14618 whole entry): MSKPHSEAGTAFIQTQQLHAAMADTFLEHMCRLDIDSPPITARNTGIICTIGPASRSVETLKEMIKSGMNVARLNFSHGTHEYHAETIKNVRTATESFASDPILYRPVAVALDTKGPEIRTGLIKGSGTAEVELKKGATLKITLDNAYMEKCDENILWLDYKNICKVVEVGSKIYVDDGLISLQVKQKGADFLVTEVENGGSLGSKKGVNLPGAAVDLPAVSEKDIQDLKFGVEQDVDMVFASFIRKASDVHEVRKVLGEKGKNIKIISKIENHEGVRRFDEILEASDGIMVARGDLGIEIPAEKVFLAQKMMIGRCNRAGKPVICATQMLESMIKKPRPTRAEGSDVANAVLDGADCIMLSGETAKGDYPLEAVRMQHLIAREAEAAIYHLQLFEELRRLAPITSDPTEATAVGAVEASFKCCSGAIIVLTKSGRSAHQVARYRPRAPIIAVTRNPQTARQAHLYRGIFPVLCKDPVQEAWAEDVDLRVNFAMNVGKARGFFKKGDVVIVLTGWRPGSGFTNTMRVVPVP

The AC50 is the concentration at which the activity in the assay is half-maximal. On to `COc1ccc(S(=O)(=O)N2CCN(S(=O)(=O)c3c(F)cccc3F)CC2)cc1` [Compound 21, 1-(2,6-difluorophenylsulfonyl)-4-(4-methoxyphenylsulfonyl)piperazine], for which, at hPK-M2 [1], the AC50 worked out at 211 ± 50 nM and the Emax was 124 ± 30%. Besides, the activation at 57 µM on hPK-M2 [2] turned out to be 102 ± 9.2%. The AC50 at hPK-M2 [2] (setting [3]) stood at 90 nM.
`O=S(=O)(c1c(F)cccc1F)N1CCN(S(=O)(=O)c2c(F)cccc2F)CC1` [Compound 22, 1,4-bis(2,6-difluorophenylsulfonyl)piperazine]: on hPK-M2 [1], the AC50 is 172 ± 29 nM and the Emax worked out at 85 ± 8%. In addition, the activation at 57 µM at hPK-M2 [2] worked out at 74.3 ± 9.8%. For the same molecule, on hPK-M2 [2] (setting [3]), the AC50 turned out to be 66 nM.
On to `O=S(=O)(c1ccc2c(c1)OCCCO2)N1CCN(S(=O)(=O)c2c(F)cccc2F)CC1` [Compound 23, 1-(2,6-difluorophenylsulfonyl)-4-(3,4-dihydro-2,1-benzo[b][1,4]dioxepin-7-ylsulfonyl)piperazine], for which, at hPK-M2 [1], the AC50 is ~500 nM and the Emax was found to be 109 ± 11%. Moreover, the activation at 57 µM on hPK-M2 [2] was 100 ± 6.6%. For the same molecule, the AC50 at hPK-M2 [2] (setting [4]) stood at 103 nM.
As for `O=S(=O)(c1ccc2ccccc2c1)N1CCN(S(=O)(=O)c2c(F)cccc2F)CC1` [Compound 26, 1-(2,6-difluorophenylsulfonyl)-4-(naphthalen-2-ylsulfonyl)piperazine], at hPK-M2 [1], the AC50 came out at 220 ± 53 nM and the Emax came to 161 ± 29%. Moreover, on hPK-M2 [2], the activation at 57 µM was 138 ± 11.3%. For the same molecule, the AC50 at hPK-M2 [2] (setting [3]) was 66 nM.
Regarding `O=S(=O)(N[C@H]1CC[C@H](NS(=O)(=O)c2c(F)cccc2F)CC1)c1ccc2c(c1)OCCO2` [Compound 37, N-((trans)-4-(2,6-difluorophenylsulfonamido)cyclohexyl)-2,3-dihydrobenzo[b][1,4]dioxine-6-sulfonamide], at hPK-M2 [1], the concentration at half-maximal activity (AC50) turned out to be 7000 ± 1500 nM and the Emax stood at 56 ± 11%. Further, the activation at 57 µM on hPK-M2 [2] is 90.8 ± 12.4%. Moreover, the AC50 on hPK-M2 [2] (setting [4]) is 2110 ± 640 nM.
With `O=S(=O)(N[C@H]1CC[C@@H](NS(=O)(=O)c2c(F)cccc2F)CC1)c1ccc2c(c1)OCCO2` [Compound 38, N-((cis)-4-(2,6-difluorophenylsulfonamido)cyclohexyl)-2,3-dihydrobenzo[b][1,4]dioxine-6-sulfonamide], the AC50 on hPK-M2 [1] is 7000 ± 1500 nM; at hPK-M2 [2] (setting [4]) it was 37100 ± 5000 nM; at hPK-M2 [2] (setting [3]), > 35000 nM. Besides, on hPK-M2 [1], the Emax was found to be 56 ± 11%. Besides, the activation at 57 µM at hPK-M2 [2] was 60.7 ± 5.6%.
In the case of `O=C1CN(S(=O)(=O)c2c(F)cccc2F)CCN1S(=O)(=O)c1ccc2c(c1)OCCO2` [Compound 49, 4-(2,6-difluorophenylsulfonyl)-1-(2,3-dihydrobenzo[b][1,4]dioxin-6-ylsulfonyl)piperazin-2-one], on hPK-M2 [1], the AC50 amounted to 440 ± 240 nM and the Emax amounted to 87 ± 37%. On hPK-M2 [2], the activation at 57 µM worked out at 105 ± 9%. Also, the AC50 at hPK-M2 [2] (setting [3]) worked out at 114 ± 20 nM.
For the molecule `O=C1CN(S(=O)(=O)c2ccc3c(c2)OCCO3)CCN1S(=O)(=O)c1c(F)cccc1F` [Compound 50, 1-(2,6-difluorophenylsulfonyl)-4-(2,3-dihydrobenzo[b][1,4]dioxin-6-ylsulfonyl)piperazin-2-one], at hPK-M2 [1], the AC50 came to 3160 nM and the Emax stood at 82%. Moreover, the activation at 57 µM on hPK-M2 [2] amounted to 96.9 ± 5.6%. Also, the concentration at half-maximal activity (AC50) on hPK-M2 [2] (setting [3]) is 2420 ± 160 nM.
`CC(C)c1cc2c(s1)c1cnn(Cc3ccccc3F)c(=O)c1n2C` [Compound 69, 2-Isopropyl-4-methyl-6-[(2-fluorophenyl)methyl]-4H-thieno[3,2-b]pyrrole[3,2-d]pyridazinone]: the half-maximal activity concentration (AC50) amounted to 1800 nM at hPK-M2 [1] and 142 ± 20 nM at hPK-M2 [2] (setting [3]). The Emax came to 302% at hPK-M2 [1] and 100% at hPK-M2 [2] (luciferase-coupled assay, relative to activation by FBP, read-out: maximum response). At hPK-M2 [2], the activation at 57 µM worked out at 106 ± 6.2%.
In the case of `Cn1c2cc([S+](C)[O-])sc2c2cnn(Cc3ccccc3F)c(=O)c21` (stereo not drawn) [Compound 73, 2-Methylsulfinyl-4-methyl-6-[(2-fluorophenyl)methyl]-4H-thieno[3,2-b]pyrrole[3,2-d]pyridazinone], on hPK-M2 [1], the AC50 worked out at 190 ± 10 nM and the Emax was 211%. In addition, the activation at 57 µM at hPK-M2 [2] amounted to 97.9 ± 3.1%. For the same molecule, the AC50 on hPK-M2 [2] (setting [3]) is 25 ± 10 nM.

These data come from patent US8937067B2, “Activators of human pyruvate kinase” (The United States of America, as represented by the …, priority 2008, dated 2015).
